According to paper PMC2731242, “Oleic Acid Biosynthesis in Plasmodium falciparum: Characterization of the Stearoyl-CoA Desaturase and Investigation as a Potential Therapeutic Target” (PLoS ONE, 2009):

Molecular target: T1, stearoyl-CoA Δ9-desaturase (PfSCD, PFE0555w) (Plasmodium falciparum, UniProt Q8I0W9)
T1 construct: gene PF3D7_0511200; native enzyme in crude schizont lysate (500 µg total protein)
Test: cell-free desaturase assay in schizont lysates, […]-stearoyl-CoA to oleic acid, silver nitrate TLC
Type: biochemical

T1 sequence (Q8I0W9 entry or part of it, stated change not applied): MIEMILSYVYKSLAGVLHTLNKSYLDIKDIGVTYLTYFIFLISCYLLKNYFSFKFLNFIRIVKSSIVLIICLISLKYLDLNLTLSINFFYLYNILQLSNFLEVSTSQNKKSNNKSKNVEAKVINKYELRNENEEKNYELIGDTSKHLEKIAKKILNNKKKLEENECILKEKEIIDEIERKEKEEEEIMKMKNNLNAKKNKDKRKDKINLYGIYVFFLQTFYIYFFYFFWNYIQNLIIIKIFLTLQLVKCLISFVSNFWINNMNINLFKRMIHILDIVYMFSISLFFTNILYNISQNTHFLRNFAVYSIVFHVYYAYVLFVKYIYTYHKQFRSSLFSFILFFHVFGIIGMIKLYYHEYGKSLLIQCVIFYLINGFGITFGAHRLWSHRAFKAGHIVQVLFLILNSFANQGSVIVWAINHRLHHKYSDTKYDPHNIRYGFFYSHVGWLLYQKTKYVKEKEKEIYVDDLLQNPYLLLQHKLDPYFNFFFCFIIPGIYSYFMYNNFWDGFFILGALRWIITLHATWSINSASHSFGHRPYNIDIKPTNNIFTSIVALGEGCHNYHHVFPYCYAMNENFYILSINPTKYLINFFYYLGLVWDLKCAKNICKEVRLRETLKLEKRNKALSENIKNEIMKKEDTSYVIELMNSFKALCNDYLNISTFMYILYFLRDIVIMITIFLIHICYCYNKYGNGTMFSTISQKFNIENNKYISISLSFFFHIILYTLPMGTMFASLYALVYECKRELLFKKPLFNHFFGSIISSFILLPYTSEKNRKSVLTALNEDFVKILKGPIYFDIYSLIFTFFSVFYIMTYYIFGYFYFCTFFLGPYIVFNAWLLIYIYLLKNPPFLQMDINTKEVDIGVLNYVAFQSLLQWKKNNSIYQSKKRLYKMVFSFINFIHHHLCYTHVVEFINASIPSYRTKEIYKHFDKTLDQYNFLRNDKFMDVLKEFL

IC50: 105 µM
SMILES: CCCCCCCCC1=C(CCCCCCCC(=O)OC)C1 [MeSter, methyl sterculate]
